Experimental data reported in paper PMC4331650 (Biochimica et Biophysica Acta, 2014).
Changes are numbered by the printed parent chain.

Key:
Type in all cases: cell-based
F256A CLC-Ka [1] = target: T1, F256A CLC-Ka (Homo sapiens, UniProt P51800, F256A); details: 200 μM NFA, 60 mV
T1 sequence (P51800 1-687 F256A): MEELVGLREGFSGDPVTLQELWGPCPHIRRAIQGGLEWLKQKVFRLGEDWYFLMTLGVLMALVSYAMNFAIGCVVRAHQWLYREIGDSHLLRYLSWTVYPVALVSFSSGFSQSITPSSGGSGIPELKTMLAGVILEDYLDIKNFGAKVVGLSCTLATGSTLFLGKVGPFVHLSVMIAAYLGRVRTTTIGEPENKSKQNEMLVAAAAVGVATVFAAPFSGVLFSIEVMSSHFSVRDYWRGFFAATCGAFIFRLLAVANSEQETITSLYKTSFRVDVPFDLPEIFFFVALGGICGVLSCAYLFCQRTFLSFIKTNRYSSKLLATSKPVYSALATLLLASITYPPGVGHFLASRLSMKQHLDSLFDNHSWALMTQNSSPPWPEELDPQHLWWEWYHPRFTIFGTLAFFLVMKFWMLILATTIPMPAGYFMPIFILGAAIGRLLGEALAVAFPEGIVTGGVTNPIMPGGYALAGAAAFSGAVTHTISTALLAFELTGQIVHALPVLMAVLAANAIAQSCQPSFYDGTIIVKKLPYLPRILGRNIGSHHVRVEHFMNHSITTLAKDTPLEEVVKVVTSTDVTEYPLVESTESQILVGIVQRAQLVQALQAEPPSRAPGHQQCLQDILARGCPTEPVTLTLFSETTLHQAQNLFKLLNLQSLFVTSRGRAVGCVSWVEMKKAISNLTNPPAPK
T1 sequence (Q8WZ55 1-320 Y98A partner): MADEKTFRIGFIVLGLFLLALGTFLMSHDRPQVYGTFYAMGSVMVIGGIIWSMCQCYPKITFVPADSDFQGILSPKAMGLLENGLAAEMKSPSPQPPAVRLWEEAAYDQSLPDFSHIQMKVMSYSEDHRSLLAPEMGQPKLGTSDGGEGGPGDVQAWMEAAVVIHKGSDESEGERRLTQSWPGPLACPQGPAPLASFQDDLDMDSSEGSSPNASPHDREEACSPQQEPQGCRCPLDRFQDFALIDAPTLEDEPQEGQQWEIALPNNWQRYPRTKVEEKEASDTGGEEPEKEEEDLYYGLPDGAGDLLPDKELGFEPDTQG

CLC-K1/barttin = target: T2, CLC-K1/barttin (Rattus norvegicus, UniProt Q06393); experiment: NFA effect on WT CLC-K1/barttin, voltage clamp in Xenopus oocytes
T2 sequence (Q06393 1-687): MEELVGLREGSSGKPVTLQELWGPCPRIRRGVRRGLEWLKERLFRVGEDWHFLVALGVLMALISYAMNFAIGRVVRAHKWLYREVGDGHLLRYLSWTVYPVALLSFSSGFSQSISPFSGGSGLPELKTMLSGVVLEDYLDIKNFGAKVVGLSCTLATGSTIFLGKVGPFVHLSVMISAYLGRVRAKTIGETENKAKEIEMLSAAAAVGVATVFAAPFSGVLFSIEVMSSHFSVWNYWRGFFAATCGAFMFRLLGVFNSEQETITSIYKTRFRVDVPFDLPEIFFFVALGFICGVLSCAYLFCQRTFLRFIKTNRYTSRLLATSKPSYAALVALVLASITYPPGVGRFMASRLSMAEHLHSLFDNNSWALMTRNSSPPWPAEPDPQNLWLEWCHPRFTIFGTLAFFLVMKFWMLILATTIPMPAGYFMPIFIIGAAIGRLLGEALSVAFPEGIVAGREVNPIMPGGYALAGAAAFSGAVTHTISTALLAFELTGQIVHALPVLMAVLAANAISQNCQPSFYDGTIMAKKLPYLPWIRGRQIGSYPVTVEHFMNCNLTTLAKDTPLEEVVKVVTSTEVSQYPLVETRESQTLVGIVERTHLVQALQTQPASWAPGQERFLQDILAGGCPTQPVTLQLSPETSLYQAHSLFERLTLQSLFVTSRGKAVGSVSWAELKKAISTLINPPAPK
T2 sequence (Q8WZ55 1-320 Y98A partner): T1 sequence (Q8WZ55 1-320 Y98A partner)

F256A CLC-Ka [2] = target: T1, F256A CLC-Ka; experiment: NFA modulation of F256A CLC-Ka currents, voltage clamp in Xenopus oocytes
N257A CLC-K1/barttin = target: T3, N257A CLC-K1/barttin (Rattus norvegicus, UniProt Q06393, N257A); experiment: NFA effect on N257A CLC-K1 with barttin, voltage clamp in Xenopus oocytes; details: 200 μM NFA
T3 sequence (Q06393 1-687 N257A): T2 sequence (Q06393 1-687) with N257A
T3 sequence (Q8WZ55 1-320 Y98A partner): T1 sequence (Q8WZ55 1-320 Y98A partner)

N257A CLC-K1 = target: T4, N257A CLC-K1 (Rattus norvegicus, UniProt Q06393, N257A); experiment: NFA effect on N257A CLC-K1 without barttin, voltage clamp in Xenopus oocytes; details: 200 μM NFA
T4 sequence (Q06393 1-687 N257A): T2 sequence (Q06393 1-687) with N257A

average current increase (F256A CLC-Ka [1]; SD, n = 5 patches): 39 +/− 13
single channel current in NFA (average) (F256A CLC-Ka [1]; n = 3): 1.75 ± 0.10 pA
distance of Gaussian components of the amplitude histogram in NFA (F256A CLC-Ka [1]; patch of Fig. 4): 1.8 pA
increase of mean current in the patch (F256A CLC-Ka [1]; the single patch shown in Fig. 4): about 53 fold
currents relative to control conditions (CLC-K1/barttin; 10 μM NFA): about 80%
currents relative to control conditions (CLC-K1/barttin; 200 μM NFA): ~45%
potentiation of currents (F256A CLC-Ka [2]; 2 μM NFA): two-fold
current increase (F256A CLC-Ka [2]; 200 μM NFA, F256A CLC-Ka in Xenopus oocytes): ~ 25 fold
effect of NFA on currents (F256A CLC-Ka [2]; all concentrations tested, from 1 to 2000 μM): potentiated
maximal stimulation (potentiation) of currents (F256A CLC-Ka [2]; at 500 μM NFA, currents at 60 mV normalized to 0 NFA): 37 fold
sensitivity to NFA compared with WT (N257A CLC-K1/barttin): only weakly more sensitive
sensitivity to NFA compared with WT (N257A CLC-K1): only weakly more sensitive
SMILES: O=C(O)c1cccnc1Nc1cccc(C(F)(F)F)c1 [NFA, niflumic acid]
